The results in this text go back to US20250236596A1, “HYDROXYLAMINE-BASED EGFR INHIBITORS FOR TREATMENT OF CANCER WITH BRAIN METASTASES” (University of Georgia Research Foundation, Inc., priority 2022, published 2025).

In general, Kd refers to a measure of binding affinity in units of concentration. A low value points to higher affinity. The term IC50 denotes the point on the concentration scale where inhibition reaches its midpoint.

In series [1] the test system is HER2-positive breast cancer cell lines: AU565, SK-BR-3, BT474 and ZR-75-30. As to the kind of experiment: CellTiter-Glo viability assay, HER2+ breast cancer cell lines. It is filed as cell-based, human. Particulars: AU565, SK-BR-3, BT474, ZR-75-30; result in words. Here is the method:
(§1) The A431, HCC827, SK-BR-3, ZR-75-30, AU565 and Caco-2 cell lines were obtained from ATCC. The NCI-H1975 cell line was obtained from SIBS. The NCI-H3255 cell line was obtained from CoBioer. Engineered Ba/F3 cell lines were obtained from Crown Bioscience. MCKII-MDR1 cells were obtained from the Netherlands Cancer Institute. HEK293 cells were obtained from Invitrogen. A431 cells were cultured in DMEM (Life Technologies) with 10% FBS. HCC827, NCI-H1975 and AU565 cells were cultured in RPMI1640 (Invitrogen) with 10% FBS. NCI-H3255 cells were cultured in BEGM (Lonza) with 10% FBS. Ba/F3 EGFR-del E746_A750/C797S and Ba/F3 EGFR-L858R/C797S cells were cultured in RPMI (Invitrogen) with 10% FBS. SK-BR-3 cells were cultured in McCoy's 5a (Invitrogen) with 10% FBS. ZR-75-30 cells were cultured in RPMI1640 (Invitrogen) with 20% FBS. BT474 cells were cultured in DMEM (Gibco) with 10% FBS and 10 μg/mL Insulin. Caco-2 and MCKII-MDR1 culture information is given in the permeability studies section. […]
(§2) Viability assays using A431, HCC827, NCI-H1975, NCI-H3255, Ba/F3 EGFR-del E746_A750/C797S, Ba/F3 EGFR-L858R/C797S, AU565, SK-BR-3 and ZR-75-30 cells were performed at Crown BioScience. […] Dose-response curves were generated and used to calculate the IC50 values which were calculated on GraphPad Prism from the non-linear regression equation fitted with a sigmoidal dose response and are presented as the mean±SEM.
A general note: ATP-based viability assays read luminescence as a measure of living cells.

The target in another series is T1, HER2 (Homo sapiens, UniProt P04626).
T1 construct: purchased Eurofins DiscoverX (contract assay, KINOMEScan KdELECT)
T1 sequence (P04626 23-1255): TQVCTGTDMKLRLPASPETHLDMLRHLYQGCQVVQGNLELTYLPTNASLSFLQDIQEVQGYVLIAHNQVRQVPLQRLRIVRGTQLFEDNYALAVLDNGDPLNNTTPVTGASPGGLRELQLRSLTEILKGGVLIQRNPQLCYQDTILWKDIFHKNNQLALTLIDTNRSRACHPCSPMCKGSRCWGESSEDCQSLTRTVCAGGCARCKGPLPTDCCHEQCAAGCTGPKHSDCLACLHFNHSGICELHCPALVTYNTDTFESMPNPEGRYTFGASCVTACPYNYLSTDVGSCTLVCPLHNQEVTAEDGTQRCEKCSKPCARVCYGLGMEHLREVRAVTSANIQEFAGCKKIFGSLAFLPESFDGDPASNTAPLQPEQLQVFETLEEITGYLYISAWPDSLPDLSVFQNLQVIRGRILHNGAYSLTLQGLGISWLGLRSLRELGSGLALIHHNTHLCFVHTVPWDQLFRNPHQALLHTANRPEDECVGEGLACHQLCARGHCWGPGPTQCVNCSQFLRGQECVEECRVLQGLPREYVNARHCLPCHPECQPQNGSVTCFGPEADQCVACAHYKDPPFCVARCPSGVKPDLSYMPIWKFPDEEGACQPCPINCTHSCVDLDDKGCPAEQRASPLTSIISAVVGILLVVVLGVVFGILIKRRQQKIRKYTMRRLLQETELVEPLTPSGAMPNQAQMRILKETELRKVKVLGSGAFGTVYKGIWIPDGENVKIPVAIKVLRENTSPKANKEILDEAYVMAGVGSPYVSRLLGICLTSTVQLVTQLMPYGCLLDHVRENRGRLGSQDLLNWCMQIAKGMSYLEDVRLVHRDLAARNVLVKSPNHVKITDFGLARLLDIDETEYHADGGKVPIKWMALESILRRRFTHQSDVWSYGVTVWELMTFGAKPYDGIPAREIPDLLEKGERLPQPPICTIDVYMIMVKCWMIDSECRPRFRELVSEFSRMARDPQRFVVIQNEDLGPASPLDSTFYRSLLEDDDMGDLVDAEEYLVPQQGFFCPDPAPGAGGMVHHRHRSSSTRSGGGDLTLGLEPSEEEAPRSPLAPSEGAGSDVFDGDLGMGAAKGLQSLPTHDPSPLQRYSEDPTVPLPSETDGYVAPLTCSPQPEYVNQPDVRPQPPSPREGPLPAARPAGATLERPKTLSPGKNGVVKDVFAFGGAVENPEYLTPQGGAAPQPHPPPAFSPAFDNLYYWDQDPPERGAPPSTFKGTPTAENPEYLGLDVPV
The experiment in a line: Follow-up KdELECT binding, HER2. Here is the method:
In vitro kinase activity (inhibitor binding constants (Kd) and biochemical inhibition (IC50's)) were assessed by Eurofins DiscoverX (Kd determinations) and Eurofins Cerep (biochemical IC50 determinations).

In series [2] the test system is Chinese hamster ovary (CHO-K1) cells. As to the kind of experiment: In vitro micronucleus test. The series is classed as cell-based. The settings on record: for concentration to which negative micronucleus result is valid: cytotoxicity above. The protocol: Compound 15 was assessed for genotoxicity by Eurofins Panlabs. using the in vitro micronucleus test in Chinese hamster ovary (CHO-K1) cells as previously described.^22 Compound 15 was incubated in a 96-well plate format at varying concentrations (8, 16, 31, 62, 125, 250, 500 and 1000 μM) for 4 h at 37° C. with metabolic activation by rat liver S9 and 24 h at 37° C. without metabolic activation by rat liver S9. High content analysis and fluorescence imaging were used to detect micronuclei and compared against positive controls (cyclophosphamide (ran at 7.2 μM) and mitomycin C (ran at 0.3 μM)). Significances of the positive counts between the treatment and control were determined by one-tailed t-test with two sample equal variance.

In series [3] the test system is Ba/F3 EGFR-del E746_A750/C797S cells. As to the kind of experiment: CellTiter-Glo viability assay, Ba/F3 EGFR-del E746_A750/C797S. The series is classed as cell-based. Particulars: Mus musculus, BaF3, osimertinib-resistant, 72 h, read-out: antiproliferative IC50. The protocol: as §1, §2
The next series concerns Caco-2 cells. As to the kind of experiment: Caco-2 cell permeability assay. The series is classed as in vitro ADME. Particulars: result in words. Here is the method: (§3) Compounds were evaluated at Pharmaron Inc. for their ability to permeate Caco-2 cells and MDCKII-MDR1 cells. A 96-well HTS Transwell plate (Corning) was used for the Caco-2 and MDCKII-MDR1 cell seeding. Caco-2 cells were seeded at a density of 6.86×10^5 cells/mL and cultivated for 14-18 days prior to assays. MDCKII-MDR1 cells were seeded at a density of 1.56×10^6 cells/mL and cultivated for 4-8 days prior to assays. To determine the rate of drug transport in both the absorptive (apical to basolateral (A-B)) and secretory (basolateral to apical (B-A)) directions, compounds (5 μM in DMSO for Caco-2 cells, and 1 μM in DMSO for MDCKII-MDR1 cells) were added to the donor wells. Plates were incubated at 37° C. for 2 h and samples (50 μL) were taken at the beginning and end of the incubation in both the donor and acceptor wells with the assay run in duplicate (n=2). Samples were analyzed by LC-MS/MS. The apparent permeability coefficient (Papp) in units (cm/s×10^−6) was calculated using the following equation.
(§4) where, VA represents the volume (mL) in the acceptor well. Area is the surface of the membrane (0.143 cm^2 for Transwell-96 well plate) and time is the total transport time in sec.
(§5) The efflux ratio was determined using the following equation: Efflux ratio=Papp (B-A)/Papp(A-B)
(§6) Where, Papp (B-A) indicates the apparent permeability in the basolateral to apical direction, and Papp (A-B) indicates the apparent permeability in the apical to basolateral direction.

For another series, the system named is MDCKII-MDR1 cells. As to the kind of experiment: MDCKII-MDR1 cell permeability assay. The settings on record: result in words. It is filed as in vitro ADME, canine. The protocol:
as §3, §4, §5, §6

Series [4] is described as follows: Solubility in PBS at pH 7.4. The series is classed as physicochemical. Particulars: compared to both 1 and 6; result in words. The protocol: Solubility was determined by Pharmaron Inc. and each compound was assessed in duplicate (n=2) by adding 15 μL of compound stock solution (10 mM in DMSO) into a 96-well plate along with 485 μL of buffer followed by shaking at 25° C., 1,100 rpm for 2 h. Wells were filtered and samples (5 μL) were taken followed by dilution with an equal volume of DMSO (5 μL) and 490 μL of aqueous solution. Samples were analyzed by LC-MS/MS.

Entries after “also recorded” stand apart in the source; their conditions may differ. Some results are limits rather than exact numbers.

For the compound `COc1cc2ncnc(Nc3cccc(Cl)c3F)c2cc1OCCON1CCN(C)CC1` [Compound 15, N-(3-chloro-2-fluorophenyl)-7-methoxy-6-(2-((4-methylpiperazin-1-yl)oxy)ethoxy)quinazolin-4-amine], in series [1], the antiproliferative activity entry is on record as “moderate antiproliferative activity”. The compound further had a dissociation constant Kd on HER2 of 21 nM. The “concentration to which negative micronucleus result is valid” value in series [2] (+rat liver S9) was at most 31 µM; in series [2] (−rat liver S9), at most 8 µM. In series [2] (CHO-K1, with and without rat liver S9), the “genotoxicity in in vitro micronucleus test” value is recorded as “negative; also recorded: neither mutagenic nor genotoxic potential”. For the same compound, in series [3], the IC50 is 2.5 nM. The efflux result with Caco-2 cells was “reduced efflux ratios”; in the series on MDCKII-MDR1 cells, “low efflux”. For the same compound, the values for the permeability entry with Caco-2 cells and with MDCKII-MDR1 cells were “remarkably enhanced permeability” and “excellent permeability”, respectively. In addition, the aqueous solubility entry in series [4] is “markedly improved aqueous solubility”.
